Data reported in patent US20240325544A1, “CATIONIC LIPID FOR COVALENT MODIFICATION OF PEPTIDES” (PharmalN Corporation, priority 2023, published 2024).
Numbered stars: 1 amine (or outer) side, 2 acyl side, 3 side chain; on linkers, the order of the positions; unused ones are H or OH. Square brackets hold non-standard residues; d marks the D form. Peptide text beside a SMILES is read from it. * marks the point of attachment. C18 diacid = O=C(O)CCCCCCCCCCCCCCCCC(=O)*; γGlu = O=C(O)[C@H](CCC(=O)[*:2])N[*:1]; Stearoyl = CCCCCCCCCCCCCCCCCC(=O)*; Palmitoyl = CCCCCCCCCCCCCCCC(=O)*; Dab = NCC[C@H](N)C(=O)O; Dap = NC[C@H](N)C(=O)O; AEEA = NCCOCCOCC(=O)O; GABA = NCCCC(=O)O

How the values were obtained:
[1] = Clinically observable adverse effects of cationic alkyl moieties after subcutaneous bolus in rats (Table 1); type: in vivo, rat; details: male, Sprague-Dawley, rat, in vivo, sc, tested at 3.0, 5.0 or 10 μmol/kg, lethargy is considered maximum tolerated bolus dose, read-out: Lethargy* in n = 3
Method: (§1) Drug administration and observation: Each rat received a subcutaneous injection of a cationic alkyl modifier (SEQ ID NO: 1-22; listed in Table 1 below) in a buffer of sterile water adjusted to a pH between 4.5-5, with an initial bolus dose of 5.0 μmol/kg and an injection volume of 1.0 mL/kg. The bolus dose level was adjusted based on observations, and animals were monitored closely for lethargy, ataxia, swelling, or discoloration during the first 4 hours post-injection and hourly thereafter. As used herein, “ataxia” means a clinical sign observed as poor muscle control that causes clumsy voluntary movements. It may cause difficulty with mobility, coordination, and eye movements. As used herein, “lethargy” means a clinical sign observed as inability or unwillingness to resume normal activity characterized by exploring and alertness. Lethargic rats are easily observed by displaying little to no activity and/or unwillingness to explore around, half closed eyes, and hunched posture. As used herein, “swelling” means a clinical sign observed as the enlargement or engorgement of body parts with blood or fluid and is associated with visible redness (discoloration). If no swelling occurred, dose level was increased to 10 μmol/kg; if swelling was present, bolus dose level was decreased to 3.0 μmol/kg. A wash-out period of 1 week was allowed between bolus doses, and animals were humanely euthanized through CO2 asphyxiation after final observation.

[2] = tested on: Sprague Dawley rats; experiment: as above; type: in vivo, rat; details: tested at 3.0, 5.0 or 10 μmol/kg; for Ataxia** in n = 3: ataxia is bolus dose limiting toxicity; for Swelling and/or Discoloration in n = 3: dose at which sign was seen
Method: as §1

SMILES	MTD [1] [µmol/kg]	Ataxia** in n = 3 [2] [µmol/kg]	Swelling and/or Discoloration in n = 3 [2] [µmol/kg]
CCCCCCCCCCCCCCCC(=O)N[C@@H](CCC(=O)NCCOCCOCC(=O)NCCOCCOCC(=O)N[C@@H](CCN)C(=O)N[C@@H](CCN)C(=O)O)C(=O)O [SEQ ID NO: 15, CH3(CH2)14(C═O)-γE-Aeea-Aeea-Dab-Dab] ({Palmitoyl-γGlu-AEEA-AEEA}-[Dab]-[Dab]-OH; C-terminus assumed)	> 10	>10	>10
CCCCCCCCCCCCCCCC(=O)NCCCC(=O)NCCCC(=O)N[C@@H](CCN)C(=O)N[C@@H](CCN)C(=O)O [SEQ ID NO: 11, CH3(CH2)14(C═O)-γAbu-γAbu-Dab-Dab] ({Palmitoyl-GABA-GABA}-[Dab]-[Dab]-OH; C-terminus assumed)	> 10	>10	>10
CCCCCCCCCCCCCCCC(=O)NCCOCCOCC(=O)NCCOCCOCC(=O)N[C@@H](CN)C(=O)N[C@@H](CCN)C(=O)O [SEQ ID NO: 13, CH3(CH2)14(C═O)-Aeea-Aeea-Dap-Dab] ({Palmitoyl-AEEA-AEEA}-[Dap]-[Dab]-OH; C-terminus assumed)	> 10	>10	>10
NC[C@H](NC(=O)[C@H](CN)NC(=O)COCCOCCNC(=O)COCCOCCNC(=O)COCCOCCNC(=O)CCCCCCCCCCCCCCCCC(=O)O)C(=O)O [SEQ ID NO: 20, (HOOC)(CH2)16(C═O)-Aeea-Aeea-Aeea-Dap-Dap] ({C18 diacid-AEEA-AEEA-AEEA}-[Dap]-[Dap]-OH; C-terminus assumed)	> 10	>10	>10
CCCCCCCCCCCCCCCC(=O)NCCOCCOCC(=O)NCCOCCOCC(=O)N[C@@H](CCCCN)C(=O)N[C@@H](CCCCN)C(=O)O [SEQ ID NO: 5, CH3(CH2)14(C═O)-Aeea-Aeea-KK]	≥ 5	≥5	–
CCCCCCCCCCCCCCCCCC(=O)N[C@@H](CCCCN)C(=O)N[C@@H](CCCCN)C(=O)N[C@@H](CCCCN)C(=O)N[C@@H](CCCCN)C(=O)NCC(=O)NCC(=O)NCC(=O)O [SEQ ID NO: 2, CH3(CH2)16(C═O)-KKKKGGG] (Stearoyl-KKKKGGG-OH; C-terminus assumed)	≥ 3	–	≥3
CCCCCCCCCCCCCCCC(=O)NCCOCCOCC(=O)NCCOCCOCC(=O)NCCOCCOCC(=O)N[C@@H](CN)C(=O)N[C@@H](CN)C(=O)N[C@@H](CN)C(=O)N[C@@H](CN)C(=O)O [SEQ ID NO: 22, CH3(CH2)14(C═O)-Aeea-Aeea-Aeea-Dap-Dap-Dap-Dap] ({Palmitoyl-AEEA-AEEA-AEEA}-[Dap][Dap][Dap][Dap]-OH; C-terminus assumed)	> 10	>10	>10
CCCCCCCCCCCCCCCC(=O)N[C@@H](CCC(=O)O)C(=O)NCCOCCOCC(=O)NCCOCCOCC(=O)N[C@@H](CCN)C(=O)N[C@@H](CCN)C(=O)O [SEQ ID NO: 16, CH3(CH2)14(C═O)-E-Aeea-Aeea-Dab-Dab] (Palmitoyl-E[AEEA][AEEA][Dab][Dab]-OH; C-terminus assumed)	> 10	>10	>10
CCCCCCCCCCCCCCCC(=O)NCCOCCOCC(=O)NCCOCCOCC(=O)N[C@@H](CCCCN)C(=O)N[C@@H](CCCCN)C(=O)N[C@@H](CCCCN)C(=O)N[C@@H](CCCCN)C(=O)O [SEQ ID NO: 4, CH3(CH2)14(C═O)-Aeea-Aeea-KKKK] ({Palmitoyl-AEEA-AEEA}-KKKK-OH; C-terminus assumed)	≥ 3	≥3	≥3
NCC[C@H](NC(=O)[C@H](CCN)NC(=O)COCCOCCNC(=O)COCCOCCNC(=O)CCCCCCCCCCCCCCCCC(=O)O)C(=O)O [SEQ ID NO: 21, (HOOC)(CH2)16(C═O)-Aeea-Aeea-Dab-Dab] ({C18 diacid-AEEA-AEEA}-[Dab]-[Dab]-OH; C-terminus assumed)	> 10	>10	>10
CCCCCCCCCCCCCCCC(=O)NCCOCCOCC(=O)NCCOCCOCC(=O)NCCOCCOCC(=O)N[C@@H](CCN)C(=O)N[C@@H](CCN)C(=O)O [SEQ ID NO: 10, CH3(CH2)14(C═O)-Aeea-Aeea-Aeea-Dab-Dab] ({Palmitoyl-AEEA-AEEA-AEEA}-[Dab]-[Dab]-OH; C-terminus assumed)	> 10	>10	≥10
CCCCCCCCCCCCCCCC(=O)NCCOCCOCC(=O)NCCOCCOCC(=O)NCCOCCOCC(=O)N[C@@H](CCN)C(=O)N[C@@H](CN)C(=O)O [SEQ ID NO: 17, CH3(CH2)14(C═O)-Aeea-Aeea-Aeea-Dab-Dap] ({Palmitoyl-AEEA-AEEA-AEEA}-[Dab]-[Dap]-OH; C-terminus assumed)	> 10	>10	>10
CCCCCCCCCCCCCCCC(=O)NCCOCCOCC(=O)NCCOCCOCC(=O)NCCOCCOCC(=O)N[C@H](CCCCN)C(=O)N[C@@H](CCCCN)C(=O)O [SEQ ID NO: 1, CH3(CH2)14(C═O)-Aeea-Aeea-Aeea-kK]	≥ 3	≥3	≥3
CCCCCCCCCCCCCCCC(=O)NCCOCCOCC(=O)NCCOCCOCC(=O)NCCOCCOCC(=O)N[C@@H](CCN)C(=O)N[C@@H](CCN)C(=O)N[C@@H](CCN)C(=O)N[C@@H](CCN)C(=O)O [SEQ ID NO: 8, CH3(CH2)14(C═O)-Aeea-Aeea-Aeea-Dab-Dab-Dab-Dab] ({Palmitoyl-AEEA-AEEA-AEEA}-[Dab][Dab][Dab][Dab]-OH; C-terminus assumed)	≥ 3	>5	≥3
CCCCCCCCCCCCCCCC(=O)NCCOCCOCC(=O)NCCOCCOCC(=O)NCCOCCOCC(=O)N[C@@H](CN)C(=O)N[C@@H](CN)C(=O)N[C@@H](CN)C(=O)O [SEQ ID NO: 19, CH3(CH2)14(C═O)-Aeea-Aeea-Aeea-Dap-Dap-Dap] ({Palmitoyl-AEEA-AEEA-AEEA}-[Dap]-[Dap]-[Dap]-OH; C-terminus assumed)	> 10	>10	>10
CCCCCCCCCCCCCCCC(=O)NCCCC(=O)NCCCC(=O)NCCCC(=O)N[C@@H](CCN)C(=O)N[C@@H](CCN)C(=O)O [SEQ ID NO: 12, CH3(CH2)14(C═O)-γAbu-γAbu-γAbu-Dab-Dab] ({Palmitoyl-GABA-GABA-GABA}-[Dab]-[Dab]-OH; C-terminus assumed)	> 10	>10	>10
